Reference: patent US12064471B2, “Compositions comprising sulforaphane or a sulforaphane precursor and a mushroom extract or powder” (NUTRAMAX LABORATORIES, INC., priority 2012, dated 2024)

Key:
myrosinase [1] = experiment: Conversion of glucoraphanin to sulforaphane in Simulated Intestinal Fluid (Example 5); assay type: biochemical, broccoli; details: 0.25 to 1.00 mmol/Liter ascorbic acid, 38° C., 2 hours
Procedure: Simulated Intestinal Fluid (SIF) powder, a commercially supplied concentrate closely approximating the human intestinal content in terms of composition, pH and ionic strength, was used. The experiment utilized a USP Dissolution Apparatus 2 (paddles), where into six dissolution vessels 500 mL of Simulated Intestinal Fluid was dispensed, along with 150 mg of freeze-dried broccoli sprout powder as a source of myrosinase. […] Aliquots were withdrawn every 15 minutes and assayed for sulforaphane.

myrosinase [2] = experiment: Conversion of glucoraphanin to sulforaphane by myrosinase, HPLC (Example 4); assay type: biochemical; details: Part 2, 250 mg broccoli seed extract
Procedure: A two-part experiment was conducted to further elucidate the role of ascorbic acid in modulating myrosinase activity. […] A control sample contained no ascorbic acid, and the enzymatic conversion proceeded unassisted by a co-factor. PART 1. […] PART 2. While keeping the amount of broccoli seed extract fixed at 250 mg, the concentration of ascorbic acid was varied from 0.4 mmol/Liter to 3.8 mmol/Liter.

O=C1O[C@H]([C@@H](O)CO)C(O)=C1O [Ascorbic Acid, Ascorbic acid]
Sulforaphane yield versus ascorbic acid concentration (myrosinase [1]): direct correlation between larger yield of sulforaphane and higher concentrations of ascorbic acid | Ascorbic acid concentration up to which myrosinase-promoted conversion increases apparently linearly, followed by leveling off (myrosinase [2]): about 2 mmol/L
